Experimental data from patent US9017963B2, “Method for detecting microorganisms” (Woundchek Laboratories (US), Inc., priority 2002, dated 2015).
Primed or numbered codes have the meaning given here. No end group written: not given here. *: point of attachment. Dabcyl″ = label, CN(C)c1ccc(/N=N/c2ccc(C(=O)*)cc2)cc1; EDANS = O=S(=O)(O)c1cccc2c(NCCN*)cccc12; Dabcyl′ = not defined here; pyrene = label

What was measured:
[1] = system: Staphylococcus aureus; assay: Glass microfiber filter biosensor, S. aureus culture; format: biochemical; conditions: Quadrant #1, S. aureus; 37° C., 30 minutes
Method: (§1) An example of a biosensor for the detection of an enzyme secreted by Staphylococcus epidermidis (S. epidermidis), and therefore, for the detection of Staphylococcus epidermidis now follows. A […] solution of 20 mM p-nitrophenyl Caprate (in ispropanol) was applied to a 2.5 cm glass microfiber filter (Whatman GF/A). The isopropanol was allowed to evaporate at room temperature for 30 minutes, leaving the substrate bound to the filter. After the filter was completely dry, a single drop of bacterial culture was applied to each quadrant of the filter. In Quadrant #1, Staphylococcus aureus was applied; in Quadrant #2, Staphylococcus epidermidis was applied; in Quadrant #3 Streptococcus salivarius was applied, and in Quadrant #4, media was applied as a control. The filter was incubated at 37° C. for 30 minutes, and detection of a yellow dye, indicating modification of the substrate by an enzyme in the bacteria was detected.

[2] = system: Serratia marcescens, Streptococcus salivarius, Escherichia coli, Pseudomonas aeruginosa, Enterococcus faecalis supernatants; assay: Lipase assay, other bacterial supernatants; format: biochemical; conditions: other bacterial samples; 20 mM Tris (pH 8.5); 37° C., 60 minutes
Method: (§2) A culture of each of the following bacterial species was grown to saturation in Brain Heart Infusion (BHI) broth at 37° C. with vigorous shaking (˜200 rpm), using methods that are standard in the art: Staphylococcus aureus; Staphylococcus epidermidis; Serratia marcescens; Streptococcus salivarius; Escherichia coli; Pseudomonas aeruginosa; and Enterococcus faecalis. After overnight growth (to saturation), a 1 mL sample of each culture was obtained, and the cells were removed from the culture supernatant by centrifugation at 12,000×g for 5 minutes. The remaining culture supernatants were stored on ice until required (less than one hour). The bacteria were assayed for the presence or absence of specific enzymes as described below. Alternatively, the bacterial cells are not separated from the culture supernatant, but rather, the assay is carried out on a sample containing the cells still in suspension in their culture broth. […]
(§3) To perform the lipase assay, 80 μL of reaction buffer, 10 μL of culture supernatant from each bacteria species described in Example 2, and 10 μL of assay substrate were added to a well of a 96-well microplate. […] At 5 minute intervals during the incubation period, absorbance at 415 nm, indicating modification of the enzyme by a lipase secreted by the cells, was automatically measured using a BioRad Benchmark Microplate reader.

[3] = system: Staphylococcus epidermidis; assay: Glass microfiber filter biosensor, S. epidermidis culture; format: biochemical; conditions: Quadrant #2, S. epidermidis; 37° C., 30 minutes
Method: as §1

[4] = system: lipases secreted by bacteria (Staphylococcus epidermidis); assay: Lipase assay, S. epidermidis culture supernatant; format: biochemical; conditions: 20 mM Tris (pH 8.5), 37° C., 60 minutes
Method: as §2, §3

[5] = system: lipase from S. aureus; assay: Lipase assay, S. aureus culture supernatant; format: biochemical, Staphylococcus aureus; conditions: 20 mM Tris (pH 8.5), 37° C., 60 minutes
Method: A culture of each of the following bacterial species was grown to saturation in Brain Heart Infusion (BHI) broth at 37° C. with vigorous shaking (˜200 rpm), using methods that are standard in the art: Staphylococcus aureus; Staphylococcus epidermidis; Serratia marcescens; Streptococcus salivarius; Escherichia coli; Pseudomonas aeruginosa; and Enterococcus faecalis. After overnight growth (to saturation), a 1 mL sample of each culture was obtained, and the cells were removed from the culture supernatant by centrifugation at 12,000×g for 5 minutes. The remaining culture supernatants were stored on ice until required (less than one hour). The bacteria were assayed for the presence or absence of specific enzymes as described below. Alternatively, the bacterial cells are not separated from the culture supernatant, but rather, the assay is carried out on a sample containing the cells still in suspension in their culture broth.
To test for the presence or absence of lipases secreted by bacteria, the lipase substrate p-nitrophenyl caprate, obtained from Sigma (Catalog No.: N-0252). This lipase substrate consists of capric acid, a ten-carbon lipid molecule, esterified with the dye para nitrophenol (detectable label) as described above. The substrate was dissolved in isopropyl alcohol at a concentration of 8 mM (2.35 mg/mL). A reaction buffer containing 20 mM Tris (pH 8.5) was also prepared.
To perform the lipase assay, 80 μL of reaction buffer, 10 μL of culture supernatant from each bacteria species described in Example 2, and 10 μL of assay substrate were added to a well of a 96-well microplate. Each bacterial species was assayed individually, and the assays were performed in triplicate. The 96-well plate was incubated at 37° C. for 60 minutes. At 5 minute intervals during the incubation period, absorbance at 415 nm, indicating modification of the enzyme by a lipase secreted by the cells, was automatically measured using a BioRad Benchmark Microplate reader.
However, it is known that bacterial lipases do show strong substrate specificity with regard to the chain length of the fatty acid they hydrolyze (Van Kampen et al., BBA, 1544: 229, 2001) and to the location in a lipid layer. The degree that the environment of the substrate affects the efficiency of hydrolysis depends on the particular enzyme. To test this for the lipase from S. aureus, the above-described lipase assay was performed in the presence of several detergent and solvent additives. The reaction buffer consisted of 20 mM Tris (pH 8.3) with 1 mM ZnSO4 added, plus either nothing additional (control), 20% methanol, 20% DMSO, or 10 mM Triton X-100.

[6] = system: Streptococcus salivarius; assay: Glass microfiber filter biosensor, S. salivarius culture; format: biochemical; conditions: Quadrant #3, S. salivarius; 37° C., 30 minutes
Method: as §1

[7] = system: Pseudomonas aeruginosa protease; assay: Protease assay for P. aeruginosa (strains P1, PA14, ZK45 supernatants); format: biochemical; conditions: 20 mM tris (pH 7.5), 150 mM NaCl, 37° C.
Description: The peptide substrates used here were labeled with the fluorescent probe edans (5-((2-aminoethyl)amino)naphthalene-1-sulfonic acid) and the quencher dye molecule dabcyl ((4-(4-(dimethylamino)phenyl)azo)benzoic acid). The labeled peptide sequences used were as follows: […]

[8] = system: P. aeruginosa protease; assay: Protease assay on porcine wound fluid; format: biochemical, Pseudomonas aeruginosa; conditions: porcine wounds infected with 10^3, 10^4 or 10^5 bacteria, 3 days; 1 hour reaction; FIG. 18
Method: In order to test for the presence of enzymatic activity in a wound bacterial protease assay for detection of P. aeruginosa was performed on samples obtained from wound infections made in pigs. […] Each of the resulting cultures was diluted into sodium phosphate buffer at pH 7.2 with 150 mM NaCl (PBS buffer) to give samples containing 10^5, 10^4, and 10^3 bacteria total in 100 μL. Immediately after surgery to create a series of partial thickness wounds was performed on the pigs, the wound surfaces were treated with calcium chloride solution for a short period and then patted dry. A buffer solution containing diluted bacterial cultures was placed on the surface of the wounds. The wounds were then covered and the infections were allowed to grow for a period of 3 days. After the dressing was removed from the pigs and the wounds were scored for degree of inflammation, 100 μL of PBS buffer was added to the wound surface and the extracted wound fluid was recovered by pipet. Each of the samples was split in half and 50 μL were used to inoculate BHI plates and the other 50 μL were placed in plastic tubes and immediately frozen at −80° C.
The buffer used to dilute the wound fluid in the protease assays was PBS. […] The reaction was followed on a fluorimetric plate reader using an excitation wavelength of 355 nm and an emission wavelength of 528 nm.

[9] = system: DNA metabolism enzymes (exonuclease and endonuclease) in bacterial supernatants; assay: Fluorescent DNA probe assay for DNA metabolism activity; format: biochemical; conditions: supernatants of eight bacteria; excitation 485 nm, emission 538 nm; 37° C.
Method: Another method for detecting DNA metabolism activity is to generate synthetic colorimetric and fluorescent DNA probes that can indicate DNA hydrolysis (exonuclease and endonuclease activity). The method was carried out as follows. Two complementary oligonucleotides were generated. One oligonucleotide was labeled with self-quenching fluorescent labels, while the other primer remained unlabeled. The sequences of the oligonucleotides were as follows: Unlabeled Sequence 5′-[…]-3 (SEQ ID NO: 6); and Labeled Sequence FL-5′-[…]-3′-FL (SEQ ID NO: 7). […] The culture was spun down by centrifugation and the supernatant was collected. The fluorescent labeled primer and its unlabeled complement were dissolved in water at a concentration of approximately 1 mg/mL. The primers were heated to melting temperature for 2 minutes at 92° C., then allowed to anneal for 5 minutes at 43° C. After annealing, the DNA substrate was added to the reaction buffer (20 mM tris (pH 7.4) with 150 mM NaCl) and incubated at 37° C. for 10 minutes. The reaction was carried out with 7 μL of culture supernatant and 3 μL of DNA substrate in 100 μL total volume at 37° C. The reaction was followed using a fluorimetric plate reader using an excitation wavelength of 485 nm and an emission wavelength of 538 nm. […]

[10] = system: Pseudomonas; assay: Peptide on positively charged membrane exposed to Pseudomonas culture medium; format: biochemical; conditions: FIG. 17C
Description: Electrostatic interactions make use of the charges on the peptide or chromophore to bind it to a surface to make a biosensor. For example, ion exchange membranes with a strong negative (ICE450) or positive (SB-6407) charge are available from Pall Gelman Laboratory, Ann Arbor, Mich. It is possible to bind the peptide substrates through interactions with their charged groups. The peptide substrate papa2, as described herein, was spotted onto a positively charged membrane and exposed to Pseudomonas culture medium.

[11] = system: Pseudomonas protease; assay: Protease assay with modified version of papa1, bacterial supernatants; format: biochemical, Pseudomonas aeruginosa; conditions: supernatants of eight bacteria; excitation 355 nm, emission 485 nm; FIG. 17A
Method: The protease assay described herein for detection of P. aeruginosa was run with the modified version of papa1. […] Each of the resulting cultures was spun down by centrifugation and the supernatant was collected. The assays were run in 20 mM tris buffer (pH 7.4) with 150 mM NaCl added. The reaction was carried out with 7 μL of supernatant and 3 μL of peptide substrate (5 mg/mL in water) in 100 μL total volume at 37° C. The reaction was followed on a fluorimetric plate reader using an excitation wavelength of 355 nm and an emission wavelength of 485 nm.

[12] = system: surface of Staphylococcus; assay: Binding of fluorescent peptide to the surface of Staphylococcus; conditions: predicted
Description: Substrates for use in the present invention include any molecule, either synthetic or naturally-occurring that can interact with an enzyme of the present invention. Examples of substrates include those substrates described herein, as well as substrates for these enzymes that are known in the art. […] Such substrates described herein can be obtained from commercial sources, e.g., Sigma (St. Louis, Mo.), or can be produced, e.g., isolated or purified, or synthesized using methods known to those of skill in the art.

CCCCCCCCCC(=O)Oc1ccc([N+](=O)[O-])cc1 [p-nitrophenyl caprate]
modification of labeled substrate on filter (yellow dye) [1]: no modification of the labeled substrate was detected | color change (absorbance at 415 nm) [2]: showed no color change | modification of labeled substrate on filter (yellow dye) [3]: Modification of the labeled substrate was detected | color change (absorbance at 415 nm) [4]: showed a dramatic color change | color change (absorbance at 415 nm) [5]: showed a dramatic color change | modification of labeled substrate on filter (yellow dye) [6]: no modification of the labeled substrate was detected

Edans - KAAHKSALKSAE - Dabcyl (Edans-KAAHKSALKSAE-{Dabcyl′}) [papa1, labeled peptide substrate of Pseudomonas aeruginosa, origin PepA]
enzymatic cleavage of peptide substrate (relative fluorescent intensity) [7]: cleaved | detection of P. aeruginosa in extracted wound fluid (relative fluorescence) [8]: samples containing P. aeruginosa were detectable

FL-5′-AGGAATTCAGTGGATCCTCGAGAGG-3′-FL (antisense CCTCTCGAGGATCCACTGAATTCCT; sense: DNA, backbone not given here; antisense: DNA, backbone and methylation of C not given here; further chemistry not fully specified) [labeled DNA probe]
DNA metabolic activity (relative fluorescence of labeled probe) [9]: detected specific DNA metabolic activity associated with Enterococcus

KKAS(E-edans)AAHKSALKSAE(K-dabcyl) (KKASE(EDANS)AAHKSALKSAEK(Dabcyl″)) [papa2, papa1 version with two lysine groups as tag for surface attachment]
fluorescence upon cleavage on membrane [10]: upon cleavage of the peptide yellow fluorescence | cleavage of protease substrate (relative fluorescence), comparison of species [11]: greatest fluorescence in the sample containing Pseudomonas

PGTKLYTVPW-pyrene [Alt derived fluorescent peptide]
change in fluorescence upon binding [12]: increase in fluorescence upon binding
